Measured values from PubChem BioAssay (NCI).
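Cells were grown in 96-well plates and exposed to each compound for 48 hours at five concentrations; endpoints were interpolated linearly between bracketing concentrations, or set to the highest concentration if not reached. TGI is the concentration that stops growth completely.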

How the values were obtained:
Assay in all cases: inhibition of tumour cell growth, NCI panel, 48 h
SF-268 CNS = system: SF-268 CNS
SR leukemia = system: SR leukemia
SN12C renal = system: SN12C renal
MDA-MB-435 = system: MDA-MB-435
786-0 renal = system: 786-0 renal
SK-OV-3 ovarian = system: SK-OV-3 ovarian
PC-3 prostate = system: PC-3 prostate
MALME-3M melanoma = system: MALME-3M melanoma
SNB-75 CNS = system: SNB-75 CNS
LOX IMVI melanoma = system: LOX IMVI melanoma
CAKI-1 renal = system: CAKI-1 renal
HT29 colon = system: HT29 colon
SF-539 CNS = system: SF-539 CNS
NCI-H226 lung = system: NCI-H226 lung
HL-60(TB) leukemia = system: HL-60(TB) leukemia
UACC-257 melanoma = system: UACC-257 melanoma
SK-MEL-5 melanoma = system: SK-MEL-5 melanoma
A498 renal = system: A498 renal
NCI-H23 lung = system: NCI-H23 lung
OVCAR-5 ovarian = system: OVCAR-5 ovarian
SK-MEL-2 melanoma = system: SK-MEL-2 melanoma
SNB-19 CNS = system: SNB-19 CNS
DU-145 prostate = system: DU-145 prostate
BT-549 breast = system: BT-549 breast
MOLT-4 leukemia = system: MOLT-4 leukemia
T-47D breast = system: T-47D breast
OVCAR-8 ovarian = system: OVCAR-8 ovarian
K-562 leukemia = system: K-562 leukemia
CCRF-CEM leukemia = system: CCRF-CEM leukemia
ACHN renal = system: ACHN renal
MCF7 breast = system: MCF7 breast
COLO 205 colon = system: COLO 205 colon
MDA-MB-231 breast = system: MDA-MB-231 breast
MDA-N = system: MDA-N
EKVX NSCLC = system: EKVX NSCLC
NCI/ADR-RES ovarian = system: NCI/ADR-RES ovarian
HS 578T breast = system: HS 578T breast
HOP-62 NSCLC = system: HOP-62 NSCLC
U251 CNS = system: U251 CNS
OVCAR-3 ovarian = system: OVCAR-3 ovarian
OVCAR-4 ovarian = system: OVCAR-4 ovarian
UACC-62 melanoma = system: UACC-62 melanoma
RXF 393 renal = system: RXF 393 renal
HCT-116 colon = system: HCT-116 colon
SK-MEL-28 melanoma = system: SK-MEL-28 melanoma
IGROV1 ovarian = system: IGROV1 ovarian
HOP-92 NSCLC = system: HOP-92 NSCLC
NCI-H522 lung = system: NCI-H522 lung
A549 NSCLC = system: A549 NSCLC
RPMI-8226 leukemia = system: RPMI-8226 leukemia
SF-295 CNS = system: SF-295 CNS
HCT-15 colon = system: HCT-15 colon
UO-31 renal = system: UO-31 renal
TK-10 renal = system: TK-10 renal
NCI-H460 lung = system: NCI-H460 lung
HCC-2998 colon = system: HCC-2998 colon
SW-620 colon = system: SW-620 colon
M14 melanoma = system: M14 melanoma
KM12 colon = system: KM12 colon

Measured: TGI

CC1(C)OC(=O)CC12CCN(Cc1ccccc1)CC2
not listed: NCI-H460 lung | HCC-2998 colon | SW-620 colon | M14 melanoma | KM12 colon
> 100 µM: all other assays above

Cc1ccnc2c1ccc1nc3ccccc3n12
99.6 µM: SF-268 CNS
92.4 µM: OVCAR-8 ovarian
93.1 µM: SK-MEL-5 melanoma
44.5 µM: NCI-H522 lung
not listed: SK-OV-3 ovarian | MALME-3M melanoma | SNB-19 CNS | ACHN renal | U251 CNS | SK-MEL-28 melanoma | HCT-15 colon
> 100 µM: all other assays above

CN(CCC(=O)O)S(=O)(=O)c1ccccc1
not listed: HCC-2998 colon
> 100 µM: all other assays above
